Laboratory results taken from ChEMBL document CHEMBL1201862, “PubChem BioAssay data set” (2004).
Activity calls are given as the source filed them.

Key:
Cytochrome P450 2C19 = Cytochrome P450 2C19 (Homo sapiens, UniProt P33261); assay: Cytochrome panel assay with activity outcomes. Panel member name: p450-cyp2c19 Compounds with AC50 equal or less than 10 uM are considered active; type: functional
Cytochrome P450 2C9 = Cytochrome P450 2C9 (Homo sapiens, UniProt P11712)
[1] = biological target: T1, Polyadenylate-binding protein 1 (Homo sapiens, UniProt P11940); assay: PABP1 MLLE–PAM2 binding inhibitor potency, dose response, biochemical, fluorescence polarization, FITC-PAM2 peptide (AID 602259); type: functional; conditions: read-out: IC50_Mean
[2] = biological target: T1, Polyadenylate-binding protein 1; assay: PABP1 MLLE–PAM2 interaction inhibitors, dose response, miRNA deadenylation inhibitor project, biochemical, fluorescence polarization, Cy5-PAM2 peptide, secondary (AID 602260); type: functional; conditions: read-out: IC50_Mean
[3] = growth suppression of PTEN-null colon cells, dose response, cell-based, HCT116 PTEN knockout (AID 1047); type: functional;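 note: HCT116 colon tumor cells with PTEN knocked out; cells exposed to compound for 60 hours before readout; potency for loss of cell viability measured by luminescence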
[4] = growth suppression of beta-catenin-knockout colon cells, dose response, cell-based, HCT116, human colon tumor (AID 1045); type: functional;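 note: HCT116 colon tumor cells with beta catenin knocked out; cells exposed to compound for 60 hours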
[5] = control 3'UTR Renilla luciferase suppression, dose response, counter-screen for Shn3 inhibitor project, cell-based, Clone20-Shn3RL, cherry-picked (AID 624133); type: functional
[6] = Shn3 3'UTR reporter inhibitors, dose response, cell-based, Clone20 osteoblasts, firefly luciferase, cherry-picked (AID 624132); type: functional;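 note: firefly luciferase luminescence from reporter carrying the Shn3 3'UTR in osteoblasts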
INS1 = assay: beta cell apoptosis inhibitors, cytokine rescue, dose response, luminescence, retest (AID 449756); type: functional, cell-based; conditions: Rattus norvegicus;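 note: cell death triggered by IL-1 beta plus TNF-alpha plus IFN-gamma mixture; protective hits raise ATP signal compared with cytokine alone wells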
[7] = biological target: T2, Corticotropin-releasing factor receptor 2/Corticotropin-releasing factor-binding protein (Homo sapiens, UniProt P24387+Q13324); assay: activators of CRF receptor 2 with binding protein – uHTS hits, confirmation (AID 602473); type: functional; conditions: read-out: EC50_Mean
T2 sequence (Q13324 whole entry): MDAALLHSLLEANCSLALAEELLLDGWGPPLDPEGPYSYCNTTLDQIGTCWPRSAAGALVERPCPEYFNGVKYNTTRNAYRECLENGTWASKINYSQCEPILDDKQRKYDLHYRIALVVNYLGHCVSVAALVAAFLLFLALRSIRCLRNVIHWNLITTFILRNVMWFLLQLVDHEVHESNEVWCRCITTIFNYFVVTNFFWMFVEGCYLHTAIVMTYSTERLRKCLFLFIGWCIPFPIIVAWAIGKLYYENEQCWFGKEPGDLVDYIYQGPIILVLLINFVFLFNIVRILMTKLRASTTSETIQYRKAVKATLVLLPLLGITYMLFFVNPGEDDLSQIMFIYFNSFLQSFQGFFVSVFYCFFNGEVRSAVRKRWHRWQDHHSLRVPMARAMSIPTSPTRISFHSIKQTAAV
T2 sequence (P24387 whole entry): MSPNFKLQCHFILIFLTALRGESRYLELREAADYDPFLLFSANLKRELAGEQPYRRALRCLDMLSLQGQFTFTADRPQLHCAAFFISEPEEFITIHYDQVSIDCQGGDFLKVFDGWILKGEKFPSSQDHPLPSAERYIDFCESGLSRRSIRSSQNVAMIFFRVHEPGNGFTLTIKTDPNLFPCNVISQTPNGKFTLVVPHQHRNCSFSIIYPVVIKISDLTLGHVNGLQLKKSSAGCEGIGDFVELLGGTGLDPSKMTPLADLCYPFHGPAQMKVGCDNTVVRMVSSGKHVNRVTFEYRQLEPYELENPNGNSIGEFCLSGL

[8] = biological target: T2, Corticotropin-releasing factor receptor 2/Corticotropin-releasing factor-binding protein; assay: Dose Response confirmation of uHTS hits for small molecule antagonists of the CRF-binding protein and CRF-R2 receptor complex.; type: functional; conditions: read-out: IC50_Mean
[9] = system: Streptococcus sp. 'group A'; assay: growth inhibition of control SK(-) GAS strain, dose response, counter-screen for streptokinase expression inhibitor project, luminescence, kanamycin, BacTiterGlo, confirmation (AID 1900); type: functional, organism-based
Streptococcus = assay: Group A Streptococcus viability loss, dose response, counter-screen for streptokinase expression inhibitor project, luminescence, BacTiterGlo (AID 1915); type: functional, organism-based;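 note: potency for reduction of bacterial viability or growth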
Streptokinase A = biological target: T3, Streptokinase A (Streptococcus pyogenes serotype M1, UniProt P10520); assay: S. pyogenes streptokinase expression inhibitors, potency, dose response, plasminogen activation absorbance, OD405 (AID 1914); type: functional, Streptococcus pyogenes M1 GAS;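 note: secreted streptokinase activity via plasminogen activation per viability signal from cell pellet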
T3 sequence (P10520 whole entry): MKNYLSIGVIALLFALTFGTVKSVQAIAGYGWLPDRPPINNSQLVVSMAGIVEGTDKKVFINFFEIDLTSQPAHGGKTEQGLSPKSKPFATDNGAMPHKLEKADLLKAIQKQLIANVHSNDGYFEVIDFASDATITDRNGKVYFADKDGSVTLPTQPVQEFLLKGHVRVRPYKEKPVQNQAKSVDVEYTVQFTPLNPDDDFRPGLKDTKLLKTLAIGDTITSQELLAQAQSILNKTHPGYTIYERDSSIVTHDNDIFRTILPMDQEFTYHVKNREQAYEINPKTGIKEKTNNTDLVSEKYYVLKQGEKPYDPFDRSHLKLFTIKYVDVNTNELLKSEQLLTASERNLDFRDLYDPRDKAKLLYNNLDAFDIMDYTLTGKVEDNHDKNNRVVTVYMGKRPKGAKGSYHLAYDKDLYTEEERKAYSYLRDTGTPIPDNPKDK

Vero = assay: cells; type: functional; conditions: Chlorocebus sabaeus
[10] = biological target: Luciferin 4-monooxygenase (Photinus pyralis, UniProt P08659); assay: firefly luciferase enzyme inhibitors, dose response, biochemical, luminescence (AID 1891)
[11] = Luminescence Cell-Based Dose Confirmation HTS to Identify Inhibitors of Platelet Dense Granule Release. [Related pubchem assays: 1663 (Primary HTS), 1678 (Summary of Project)]; type: functional
Cytochrome P450 2D6 = Cytochrome P450 2D6 (Homo sapiens, UniProt P10635);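 note: CYP2D6 member of a cytochrome P450 panel assay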
[12] = HEp-2 cell cytotoxicity, dose response, cytotoxicity control for RSV inhibitor project, HTS (AID 2410); type: functional; conditions: human respiratory syncytial virus
[13] = biological target: T4, Heat shock factor protein 1 (Mus musculus, UniProt P38532); assay: HSF1 potentiators in luciferase reporter cells, confirmation, cell-based, NIH3T3, luminescence, dose retest (AID 435004); type: functional;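 note: stress induced by proteasome inhibitor MG132 added 30 min after compound; luciferase reporter driven by HSF1 response element in NIH3T3 cells; actives raise luminescence as potentiators of the MG132 stress response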
T4 sequence (P38532 whole entry): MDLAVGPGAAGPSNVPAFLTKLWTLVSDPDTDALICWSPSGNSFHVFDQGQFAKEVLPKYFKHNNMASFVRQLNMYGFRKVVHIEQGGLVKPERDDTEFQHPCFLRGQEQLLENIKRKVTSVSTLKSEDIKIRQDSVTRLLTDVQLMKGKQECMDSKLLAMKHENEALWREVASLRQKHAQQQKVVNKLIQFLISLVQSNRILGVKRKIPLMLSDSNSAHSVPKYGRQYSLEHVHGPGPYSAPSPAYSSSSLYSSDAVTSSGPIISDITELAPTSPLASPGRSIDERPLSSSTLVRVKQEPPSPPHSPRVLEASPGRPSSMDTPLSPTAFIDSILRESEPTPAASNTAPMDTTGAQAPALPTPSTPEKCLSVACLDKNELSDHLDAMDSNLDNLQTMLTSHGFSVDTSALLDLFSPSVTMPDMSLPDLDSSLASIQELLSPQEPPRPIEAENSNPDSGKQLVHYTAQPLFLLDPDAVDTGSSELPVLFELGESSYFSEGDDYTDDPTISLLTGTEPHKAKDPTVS

Cytochrome P450 1A2 = biological target: T5, Cytochrome P450 1A2 (Homo sapiens, UniProt P05177);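 note: PubChem cytochrome P450 panel assay, CYP1A2 panel member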
T5 sequence (P05177 whole entry): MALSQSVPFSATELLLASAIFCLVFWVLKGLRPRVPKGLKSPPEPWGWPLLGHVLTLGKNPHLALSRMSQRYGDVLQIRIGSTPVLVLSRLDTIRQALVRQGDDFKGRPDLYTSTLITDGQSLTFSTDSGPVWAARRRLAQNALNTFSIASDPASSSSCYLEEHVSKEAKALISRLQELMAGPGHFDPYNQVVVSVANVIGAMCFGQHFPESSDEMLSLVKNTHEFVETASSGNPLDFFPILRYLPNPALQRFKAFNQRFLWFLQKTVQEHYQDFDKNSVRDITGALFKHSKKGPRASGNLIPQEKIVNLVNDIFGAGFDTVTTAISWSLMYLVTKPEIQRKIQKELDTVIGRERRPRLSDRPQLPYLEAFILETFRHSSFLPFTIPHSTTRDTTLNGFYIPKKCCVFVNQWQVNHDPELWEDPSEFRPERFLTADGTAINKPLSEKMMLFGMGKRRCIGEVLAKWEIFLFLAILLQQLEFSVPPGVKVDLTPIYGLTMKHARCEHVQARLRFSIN

[14] = inhibitors of firefly luciferase expression or activity, dose response, H4 neuroglioma cells, luminescence (AID 1990); type: functional, cell-based
[15] = inhibitors of SNCA 5'UTR-driven reporter translation, confirmation, H4 neuroglioma cells, luminescence (AID 1988); type: functional, cell-based
[16] = Luminescence Cell-Based Dose Response HTS to Identify Inhibitors of 5'UTR Stem-Loop Driven Prion Protein mRNA Translation in H4 Neuroglioblastoma Cells. [Related pubchem assays: 1827 (Project Summary), 1813 (Primary HTS)]; type: functional

Cytochrome P450 2C9, sequence (P11712 whole entry): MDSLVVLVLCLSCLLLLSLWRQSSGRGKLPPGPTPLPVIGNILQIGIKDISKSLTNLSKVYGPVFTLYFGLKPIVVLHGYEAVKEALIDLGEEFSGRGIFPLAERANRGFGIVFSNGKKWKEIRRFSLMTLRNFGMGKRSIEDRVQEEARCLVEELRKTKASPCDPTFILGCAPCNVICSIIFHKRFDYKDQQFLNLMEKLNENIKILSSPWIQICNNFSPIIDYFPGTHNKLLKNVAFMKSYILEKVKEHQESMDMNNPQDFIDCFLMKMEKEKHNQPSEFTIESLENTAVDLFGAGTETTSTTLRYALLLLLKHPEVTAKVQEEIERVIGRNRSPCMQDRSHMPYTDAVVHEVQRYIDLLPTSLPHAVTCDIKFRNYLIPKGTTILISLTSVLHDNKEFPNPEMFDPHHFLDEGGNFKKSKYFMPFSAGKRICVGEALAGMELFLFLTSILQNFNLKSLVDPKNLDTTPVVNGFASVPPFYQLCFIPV
Cytochrome P450 2C19, sequence (P33261 whole entry): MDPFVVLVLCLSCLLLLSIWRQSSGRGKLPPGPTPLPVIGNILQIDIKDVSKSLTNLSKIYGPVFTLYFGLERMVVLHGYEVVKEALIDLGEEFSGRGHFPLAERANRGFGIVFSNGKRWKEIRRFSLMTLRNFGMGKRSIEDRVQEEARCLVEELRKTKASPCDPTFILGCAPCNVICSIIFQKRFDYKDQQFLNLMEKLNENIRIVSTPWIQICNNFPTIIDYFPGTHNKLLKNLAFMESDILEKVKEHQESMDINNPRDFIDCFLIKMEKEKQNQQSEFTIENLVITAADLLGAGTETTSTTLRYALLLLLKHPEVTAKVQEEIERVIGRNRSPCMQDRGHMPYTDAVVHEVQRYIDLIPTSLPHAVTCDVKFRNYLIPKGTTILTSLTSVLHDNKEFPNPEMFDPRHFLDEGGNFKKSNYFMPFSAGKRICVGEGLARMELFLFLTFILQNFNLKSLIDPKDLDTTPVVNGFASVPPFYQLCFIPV
T1 sequence (P11940 whole entry): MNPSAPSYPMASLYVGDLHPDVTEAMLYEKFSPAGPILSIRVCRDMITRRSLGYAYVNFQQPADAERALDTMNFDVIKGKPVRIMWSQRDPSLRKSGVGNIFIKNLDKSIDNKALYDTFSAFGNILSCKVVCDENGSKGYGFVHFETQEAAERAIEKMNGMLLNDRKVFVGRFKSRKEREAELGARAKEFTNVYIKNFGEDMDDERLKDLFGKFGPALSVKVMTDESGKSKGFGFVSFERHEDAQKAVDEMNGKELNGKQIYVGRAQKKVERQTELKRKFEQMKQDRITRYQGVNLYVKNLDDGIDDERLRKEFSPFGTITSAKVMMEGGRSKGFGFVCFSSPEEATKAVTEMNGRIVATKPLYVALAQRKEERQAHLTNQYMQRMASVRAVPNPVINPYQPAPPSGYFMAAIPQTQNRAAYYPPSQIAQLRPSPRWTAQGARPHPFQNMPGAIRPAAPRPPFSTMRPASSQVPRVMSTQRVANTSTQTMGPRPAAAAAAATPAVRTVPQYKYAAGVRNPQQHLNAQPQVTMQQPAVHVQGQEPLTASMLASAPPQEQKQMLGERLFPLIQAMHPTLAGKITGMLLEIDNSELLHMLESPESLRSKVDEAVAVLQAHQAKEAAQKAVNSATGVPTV
Cytochrome P450 2D6, sequence (P10635 whole entry): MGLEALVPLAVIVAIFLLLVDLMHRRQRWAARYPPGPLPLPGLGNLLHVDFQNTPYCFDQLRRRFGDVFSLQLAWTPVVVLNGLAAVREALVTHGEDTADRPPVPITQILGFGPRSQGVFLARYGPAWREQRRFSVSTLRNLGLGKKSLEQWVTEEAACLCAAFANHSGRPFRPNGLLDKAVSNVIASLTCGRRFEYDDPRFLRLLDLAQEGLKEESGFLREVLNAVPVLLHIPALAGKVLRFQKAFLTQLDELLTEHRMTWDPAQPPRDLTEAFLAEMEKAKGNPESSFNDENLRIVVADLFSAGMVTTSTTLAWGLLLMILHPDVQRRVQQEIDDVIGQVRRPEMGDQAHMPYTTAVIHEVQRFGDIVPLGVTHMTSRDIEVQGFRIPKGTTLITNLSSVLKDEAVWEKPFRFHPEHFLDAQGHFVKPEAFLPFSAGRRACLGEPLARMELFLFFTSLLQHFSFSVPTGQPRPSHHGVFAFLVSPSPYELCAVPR
Luciferin 4-monooxygenase, sequence (P08659 whole entry): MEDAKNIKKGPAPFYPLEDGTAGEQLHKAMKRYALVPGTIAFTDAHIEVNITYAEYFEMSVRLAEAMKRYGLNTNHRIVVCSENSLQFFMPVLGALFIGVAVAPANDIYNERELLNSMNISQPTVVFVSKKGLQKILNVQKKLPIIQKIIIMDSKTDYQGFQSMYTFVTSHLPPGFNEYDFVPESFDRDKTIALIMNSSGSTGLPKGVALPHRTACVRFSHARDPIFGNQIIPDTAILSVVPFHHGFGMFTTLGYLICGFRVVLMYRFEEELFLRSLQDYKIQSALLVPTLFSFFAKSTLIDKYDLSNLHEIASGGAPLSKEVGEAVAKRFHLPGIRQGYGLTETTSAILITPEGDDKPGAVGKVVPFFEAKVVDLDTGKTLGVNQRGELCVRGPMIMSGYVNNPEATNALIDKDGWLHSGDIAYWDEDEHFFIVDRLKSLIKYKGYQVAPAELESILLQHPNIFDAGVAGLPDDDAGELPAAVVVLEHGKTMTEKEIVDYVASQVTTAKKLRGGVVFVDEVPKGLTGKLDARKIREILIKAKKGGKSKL

SMILES: CCCc1nnc(NC(=O)CN2C(=O)C3C4C=CC(C4)C3C2=O)s1 (configuration not stated)
- AC50 (Cytochrome P450 2C19; read-out: AC50): 17.8 µM (inconclusive)
- AC50 (Cytochrome P450 2C9): inconclusive

SMILES: Cn1c(Cc2cccc3ccccc23)nnc1SCC(=O)N1CCN(c2ccccc2)CC1
- AC50 (Cytochrome P450 2C9): inconclusive

SMILES: O=C(NC(=S)Nc1ccc2c(c1)OCCO2)c1ccccc1
- IC50 [1]: > 66 µM (inactive)
- IC50 [2]: > 66 µM (inactive)

SMILES: Cc1cscc(C)c1=S
- IC50 [1]: > 66 µM (inactive)
- IC50 [2]: > 66 µM (inactive)

SMILES: Cc1ccccc1C(=O)Nc1ccc2c(C#N)c3nc4ccccc4nc3n2c1
- EC50 [3]: 6.62 µM (active)
- EC50 [4]: 5.34 µM (active)

SMILES: CCCc1ccc(C(=O)NNc2cc(Cl)ccc2Cl)cc1
- AC50 [5]: 10.1 µM (active)
- AC50 [6]: 2.59 µM (active)

SMILES: CC(C)(C)n1nc2c(c1NC(=O)c1cc3ccccc3o1)CSC2
- IC50 [1]: > 66 µM (inactive)
- IC50 [2]: > 66 µM (inactive)

SMILES: O=C(c1cccc(Cl)c1)c1nn(-c2ccccc2)c(=O)cc1C(F)(F)F
- AC50 (INS1): 23.8 µM (active)
- EC50 [3]: 10.6 µM (active)
- EC50 [4]: 12.3 µM (active)

SMILES: O=C(C[n+]1nc(CNc2ccc(Cl)cc2)n2c1CCCCC2)c1ccc(Br)cc1
- EC50 [7]: > 53 µM (inactive)
- IC50 [8]: > 47.1 µM (inactive)
- EC50 [9]: 5.64 µM (active)
- EC50 (Streptococcus): 84.2 µM (active)
- EC50 (Streptokinase A): 12.5 µM (active)

SMILES: O=C1c2cccc3c(Cl)ccc(c23)C(=O)N1O
- AC50 (Cytochrome P450 2C9): inconclusive

SMILES: COc1ccccc1COC(=O)Nc1c(C)nn(C)c1Cl
- AC50 (Cytochrome P450 2C9): inconclusive

SMILES: Cn1ncc2c(Nc3ccc(-c4ccccc4)cc3)ncnc21
- CC50 (Vero): > 25 µM (active)

SMILES: COc1ccc(O)c(C(=O)CC(=O)c2ccccc2C)c1
- CC50 (Vero): 20.4 µM (active)
- EC50 [9]: 6.85 µM (active)
- EC50 (Streptococcus): 49.1 µM (active)
- EC50 (Streptokinase A): > 150 µM (not active)

SMILES: COCCCNC(=O)Cn1nc(-c2ccccc2OC)ccc1=O
- AC50 (Cytochrome P450 2C19): inconclusive
- AC50 (Cytochrome P450 2C9): inconclusive
- EC50 [10]: > 112 µM (not active)
- EC50 [11]: > 112 µM (not active)

SMILES: CC(C)CC(=O)/N=C1\SC2CS(=O)(=O)CC2N1Cc1ccccc1 (configuration not stated)
- EC50 [3]: 41.1 µM (active)
- EC50 [4]: 75.3 µM (active)

SMILES: CCc1c(C)sc(NC(=O)c2ccco2)c1C(=O)N1CCOCC1
- IC50 [1]: > 66 µM (inactive)
- IC50 [2]: > 66 µM (inactive)

SMILES: O=C(NCC(c1ccco1)N1CCCCC1)c1ccc(COc2ccc(Cl)cc2)cc1 (configuration not stated)
- CC50 (Vero): > 25 µM (active)

SMILES: COc1cc(C(=O)NCc2cccc3ccccc23)cc(Cl)c1OC
- AC50 (Cytochrome P450 2C9): inconclusive
- AC50 (Cytochrome P450 2D6): 15.8 µM (inconclusive)

SMILES: O=[N+]([O-])c1cccc(C(=S)N2CCN(c3ccccc3F)CC2)c1
- IC50 [1]: > 66 µM (inactive)
- IC50 [2]: > 66 µM (inactive)

SMILES: CSc1nc(C2CC2)cc(-c2cccs2)c1C#N
- CC50 [12]: 11.8 µM (active)
- AC50 (Cytochrome P450 2C19; read-out: AC50): 1.26 µM (inconclusive)
- AC50 (Cytochrome P450 2C9): inconclusive

SMILES: Nc1nc(N)c(/C=N/c2ccc(Br)cc2)c(Nc2ccc(Br)cc2)n1
- CC50 (Vero): > 25 µM (active)
- EC50 [13]: 71.2 µM (active)
- EC50 [9]: 1.11 µM (active)
- EC50 (Streptococcus): 3.09 µM (active)
- EC50 (Streptokinase A): > 150 µM (not active)

SMILES: Oc1ccc(Cc2nccc3cc(O)c(O)cc23)cc1O [PAPAVEROLINE]
- AC50 (Cytochrome P450 2C9): inconclusive
- AC50 (Cytochrome P450 1A2): 5.01 µM (inconclusive)

SMILES: C/C(C[n+]1ccccc1)=N\N=C(N)N
- AC50 (Cytochrome P450 2C9): inconclusive

SMILES: COCCn1c(SCC(=O)Nc2cccc(C(=O)OC)c2)nc2ccccc2c1=O
- EC50 [7]: > 53 µM (inactive)
- EC50 [14]: 36.7 µM (active)
- EC50 [15]: 15.2 µM (active)
- IC50 [8]: > 47.1 µM (inactive)
- EC50 [16]: > 120 µM (not active)
